# According to publication PMC5923123, “In Vitro and In Vivo Efficacy of a Novel and Long-Acting Fungicidal Azole, PC1244, on Aspergillus fumigatus Infection” (Antimicrobial Agents and Chemotherapy, 2018):
# Several values for one entry are separate records, joined by “and”; a condition that tells them apart may be missing. Equal entries are not always repeated. Where two headings read alike, the source gives them in different places.
# Columns and labels:
# A. fumigatus NCPF2010 = assay: EUCAST broth microdilution growth inhibition (OD 530 nm, 384-well); type: cell-based; settings: Aspergillus fumigatus, strain NCPF2010 (ITC-susceptible), 48 h, range tested 0.002 to 1 μg/ml
# Procedure: The antifungal activities of the test compounds against A. fumigatus strains (itraconazole [ITC]-susceptible strains NCPF2010, AF294, and AF293; ITC-resistant strains AF72 and AF91) were calculated from growth curves generated by spectrophotometric analysis and compared to the activities against positive and negative controls.
# [1] = system: 96 clinically isolated A. fumigatus strains; assay: EUCAST MIC against clinical isolates (visual); type: cell-based, Aspergillus fumigatus; settings: 96 clinical isolates; for MIC Range / MIC50 / MIC90 / MIC: visual; for MIC50 / MIC90 / MIC: Aspergillus fumigatus
# From the text: The antifungal activity of PC1244 was further evaluated against 96 clinical isolates (obtained from Saint Louis Hospital, Paris, France [50 isolates], and the North West England Mycology Reference Centre, Manchester, UK [46 isolates]). […] .
# [2] = system: A. fumigatus hyphae (NCPF2010); assay: Persistence of action on A. fumigatus hyphae (resazurin microtiter assay); type: cell-based, Aspergillus fumigatus; settings: for IC50: Aspergillus fumigatus, NCPF2010
# Procedure: The duration of action of test agents within the hyphae of A. fumigatus has been determined using a resazurin-based microtiter assay ([28]).
# The persistence of action of the test agents against A. fumigatus hyphae (NCPF2010) was determined as previously reported ([28]). […] The plates were incubated for exactly 20 min at 35°C in 5% CO2. After the incubation time had elapsed, all wells on the designated washout plate were aspirated and growth medium (100 μl/well) was added across the plate. […] Resazurin (0.04% diluted in growth medium) was added to all wells of both the nonwashout and washout plates (5 μl/well) to give a final concentration of 0.002% resazurin. The plates were incubated at 35°C in 5% CO2 for 16 h. Subsequently, the fluorescence in each well was measured at an excitation λ of 545 nm and an emission λ of 600 nm using a multiscanner (Clariostar; BMG, Buckinghamshire, UK). […] This study was conducted in quadruplicate in three independent experiments.
# [3] = system: BEAS2B cells infected with A. fumigatus; assay: Persistence of action in bronchial epithelial cells (galactomannan in supernatant); type: cell-based, Aspergillus fumigatus; settings: for IC50: Aspergillus fumigatus, BEAS-2B, GM readout
# Procedure: In a second system, the persistence of the action of the same three agents on A. fumigatus-infected bronchial epithelial cells was quantified using galactomannan (GM) production in the culture supernatant as an index of fungal growth. BEAS2B cells were infected with A. fumigatus, and the effects of a 24-h washout period (medium change) prior to infection were examined.
# The persistence of action of the test agents was evaluated in immortalized bronchial epithelial cells (BEAS2B cells) as previously reported ([28]). […] The plate was incubated for exactly 1 h at 37°C in 5% CO2. After the incubation time had elapsed, all wells on the washout plate were aspirated and growth medium (100 μl/well) was added across the plate. […] The plate was incubated for exactly 1 h at 37°C in 5% CO2, after which A. fumigatus conidia were added across both plates at a final concentration of 1 × 10^3/well. […] This study was conducted in triplicate in three independent experiments.
# [4] = system: Aspergillus flavus (ATCC 204304); assay: CLSI MIC; type: cell-based
# [5] = system: Aspergillus flavus (AFL8, NRRC3357); assay: EUCAST MIC; type: cell-based
# [6] = system: Aspergillus terreus (AT49, AT7130); assay: EUCAST MIC; type: cell-based
# [7] = system: Penicillium chrysogenum (ATCC 9480); assay: CLSI MIC; type: cell-based; settings: ATCC9480, 1 strain
# [8] = system: Penicillium citrinum (ATCC 9849); assay: CLSI MIC; type: cell-based; settings: ATCC9849, 1 strain
# [9] = system: Trichophyton rubrum (ATCC 10218); assay: CLSI MIC; type: cell-based; settings: ATCC10218, 1 strain
# [10] = system: Aureobasidium pullulans (ATCC 348); assay: CLSI MIC; type: cell-based; settings: ATCC348, 1 strain
# [11] = system: Cladosporium argillaceum (ATCC 38013); assay: CLSI MIC; type: cell-based; settings: Rhizocladosporium argillaceum, ATCC38013, 1 strain
# [12] = system: Candida albicans (20240.047, ATCC 10231); assay: CLSI MIC; type: cell-based
# [13] = system: Chaetomium globosum (ATCC 44699); assay: CLSI MIC; type: cell-based; settings: ATCC44699, 1 strain
# [14] = system: Gibberella zeae(Fusarium graminearum) (ATCC 16106); assay: microbe, parasite or virus in culture; type: cell-based; settings: ATCC16106
# [15] = system: Cryptococcus neoformans (ATCC 24067); assay: CLSI MIC; type: cell-based
# [16] = system: Lichtheimia corymbifera (ATCC 7909); assay: CLSI MIC; type: cell-based; settings: ATCC7909, 1 strain
# [17] = system: Mucor circinelloides (ATCC 8542); assay: CLSI MIC; type: cell-based; settings: ATCC8542, 1 strain
# [18] = system: Rhizomucor pusillus (ATCC 16458); assay: CLSI MIC; type: cell-based; settings: ATCC16458, 1 strain
# [19] = system: Rhizopus oryzae(ATCC 11145); assay: CLSI MIC; type: cell-based; settings: Rhizopus arrhizus, ATCC11145, 1 strain
# A. fumigatus (NCPF2010) [20] = assay: Fungicidal activity by subculture on agar (CFU-MFC); settings: for MFC: Aspergillus fumigatus, NCPF2010, 48 h, read-out: CFU-MFC; for CFU-MFC/MIC ratio: NCPF2010
# Procedure: (§1) After the MIC for each compound was recorded, fungicidal activity was determined as previously described ([35]). Briefly, medium from each well (100 μl/well) was removed after pipetting up and down five times and subcultured onto 4% Sabouraud dextrose agar plates. The plates were incubated (35°C with ambient air) for 48 h, and the numbers of CFU were counted for each compound concentration. The minimum fungicidal concentration (MFC) was determined as the lowest compound concentration yielding 3 colonies or less.
# A. fumigatus (NCPF2010) [21] = assay: Fungicidal activity by XTT colorimetric method (XTT-MFC); settings: for MFC: NCPF2010, read-out: XTT-MFC; for XTT-MFC/MIC ratio / XTT-MFC: NCPF2010; for XTT-MFC: cutoff 99% inhibition
# Procedure: In addition, the fungicidal effect of each compound was determined using 2,3-bis-(2-methoxy-4-nitro-5-sulfophenyl)-2H-tetrazolium-5-carboxanilide salt (XTT)-based quantitative colorimetric analysis (XTT-MFC).
# After the removal of medium for culture-based testing of the number of CFU, the contents of all wells were carefully aspirated and warm PBS (200 μl/well) was added. After gentle agitation, the contents of all wells were aspirated and fresh medium was added (200 μl/well). The plates were incubated (35°C with ambient air) for 24 h. […] The plates were incubated (35°C with ambient air) for 2 h, after which the plates were agitated gently for 2 min. The optical density (OD) of each well at 450 nm and 620 nm was measured using a multiscanner (Clariostar; BMG, Buckinghamshire, UK).
# A. fumigatus (NCPF2010) [22] = assay: Broth microdilution MIC (96-well) preceding MFC determination; settings: Aspergillus fumigatus
# Procedure: as §1
# [23] = 20 min contact, washout, 16 h incubation, read-out: Hyphae IC50 Washout
# [24] = continuous contact 16 h, read-out: Hyphae IC50 No washout
# [25] = 1 h contact before infection, no washout, read-out: BEAS2B cells IC50 No washout
# [26] = 1 h contact then 24-h washout before infection, read-out: BEAS2B cells IC50 Washout
# [27] = Aspergillus fumigatus, NCPF2010, read-out: maximum inhibition of fungicidal activity
# [28] = ATCC204304, CLSI, 1 strain, read-out: MIC
# [29] = EUCAST, 2 strains, mean MIC, read-out: MIC
# [30] = ATCC10231, CLSI, 2 strains, mean MIC, MIC = 50% inhibition of fungal growth, read-out: MIC
# [31] = ATCC24067, CLSI, 1 strain, read-out: MIC
structure (smiles),measurement,setting,value
"C[C@@H](c1ncncc1F)[C@](O)(Cn1cncn1)c1ccc(F)cc1F [Voriconazole, voriconazole]",IC50,A. fumigatus NCPF2010,0.15 µg/mL
same,IC90,A. fumigatus NCPF2010,0.21 µg/mL
same,MIC Range,[1],0.06 to 4 µg/mL
same,MIC50,[1],0.5 µg/mL
same,MIC90,[1],1 µg/mL
same,MIC,[1]; read-out: MIC Geometric mean,0.42 µg/mL
same,MIC,[1]; read-out: MIC Mode,0.5 µg/mL
same,IC50,[2]; [23],> 1 µg/mL
same,IC50,[2]; [24],0.011 µg/mL
same,IC50,[3]; [25],0.054 µg/mL
same,IC50,[3]; [26],> 1 µg/mL
same,activity after 1-h contact and 24-h washout,[3]; BEAS2B cells,ineffective
same,MIC,[4]; ATCC204304,2 µg/mL
same,MIC,[5],0.63 µg/mL
same,MIC,[6],1 µg/mL
same,MIC,[7],2 µg/mL
same,MIC,[8],> 8 µg/mL
same,MIC,[9],0.063 µg/mL
same,MIC,[10],> 8 µg/mL
same,MIC,[11],0.5 µg/mL
same,MIC,[12]; ATCC10231,0.14 µg/mL
same,MIC,[13],1 µg/mL
same,MIC,[14],> 8 µg/mL
same,MIC,[15]; ATCC24067,0.016 µg/mL
same,MIC,[16],> 8 µg/mL
same,MIC,[17],> 8 µg/mL
same,MIC,[18],> 8 µg/mL
same,MIC,[19],> 8 µg/mL
same,MFC,A. fumigatus (NCPF2010) [20],16 µg/mL
same,MFC,A. fumigatus (NCPF2010) [21]; Aspergillus fumigatus,> 32 µg/mL
same,inhibition at 32 µg/mL,A. fumigatus (NCPF2010) [21]; [27],69.2%
same,MIC,A. fumigatus (NCPF2010) [22],1.67 ± 0.58 µg/mL
"Cc1cc(N2CCN(c3ccc(C(=O)N[C@H]4CCCC[C@@H]4O)cc3)CC2)ccc1OC[C@@H]1CO[C@@](Cn2cncn2)(c2ccc(F)cc2F)C1 [PC1244, 4-(4-(4-(((3R,5R)-5-((1H-1,2,4-triazol-1-yl)methyl)-5-(2,4-difluorophenyl)tetrahydrofuran-3-yl)methoxy)-3-methylphenyl)piperazin-1-yl)-N-((1S,2S)-2-hydroxycyclohexyl)benzamide]",IC50,A. fumigatus NCPF2010,0.0017 µg/mL
same,IC90,A. fumigatus NCPF2010,0.0022 µg/mL
same,fold more potent than VRC on the basis of geometric mean MICs,[1],6.2 fold
same,MIC Range,[1],0.008 to 2 µg/mL
same,MIC50,[1],0.032 µg/mL
same,MIC90,[1],0.5 µg/mL
same,MIC,[1]; read-out: MIC Geometric mean,0.067 µg/mL
same,MIC,[1]; read-out: MIC Mode,0.016 µg/mL
same,Hyphae Fold change (washout vs no washout),[2],2.4 fold and 2.41 fold
same,IC50,[2]; [23],0.00025 µg/mL
same,IC50,[2]; [24],0.00011 µg/mL
same,fold more potent than POS at inhibiting hyphal growth,[2]; no washout IC50,4.1 fold
same,fold more potent than VRC at inhibiting hyphal growth,[2]; no washout IC50,100 fold
same,IC50,[3]; [25],0.0034 µg/mL
same,IC50,[3]; [26],0.018 µg/mL
same,MIC,[4]; [28],0.25 µg/mL
same,MIC,[5]; [29],0.38 µg/mL
same,MIC,[6]; [29],0.38 µg/mL
same,MIC,[7],0.13 µg/mL
same,MIC,[8],0.5 µg/mL
same,MIC,[9],0.031 µg/mL
same,MIC,[10],1 µg/mL
same,MIC,[11],0.25 µg/mL
same,MIC,[12]; [30],< 0.0078 µg/mL
same,MIC,[13],0.063 µg/mL
same,MIC,[14],1 µg/mL
same,MIC,[15]; [31],0.016 µg/mL
same,MIC,[16],1 µg/mL
same,MIC,[17],2 µg/mL
same,MIC,[18],2 µg/mL
same,MIC,[19],0.25 µg/mL
same,fold stronger than POS (CFU-MFC),A. fumigatus (NCPF2010) [20],2 fold
same,fold stronger than VRC (CFU-MFC),A. fumigatus (NCPF2010) [20],8 fold
same,MFC,A. fumigatus (NCPF2010) [20],2 µg/mL
same,CFU-MFC/MIC ratio,A. fumigatus (NCPF2010) [20],32
same,fold more potent than POS (XTT-MFC),A. fumigatus (NCPF2010) [21],3 fold
same,fold more potent than VRC (XTT-MFC),A. fumigatus (NCPF2010) [21],> 229 fold
same,MFC,A. fumigatus (NCPF2010) [21]; Aspergillus fumigatus,0.14 µg/mL
same,inhibition at 1 µg/mL,A. fumigatus (NCPF2010) [21]; [27],99.9%
same,XTT-MFC/MIC ratio,A. fumigatus (NCPF2010) [21],2.2
same,XTT-MFC,A. fumigatus (NCPF2010) [21],0.14 ± 0.0058 µg/mL
same,MIC,A. fumigatus (NCPF2010) [22],0.063 µg/mL
"CC[C@@H]([C@H](C)O)n1ncn(-c2ccc(N3CCN(c4ccc(OC[C@@H]5CO[C@@](Cn6cncn6)(c6ccc(F)cc6F)C5)cc4)CC3)cc2)c1=O [Posaconazole, posaconazole]",IC50,A. fumigatus NCPF2010,0.007 µg/mL
same,IC90,A. fumigatus NCPF2010,0.0084 µg/mL
same,MIC Range,[1],0.016 to 2 µg/mL
same,MIC50,[1],0.063 µg/mL
same,MIC90,[1],0.5 µg/mL
same,MIC,[1]; read-out: MIC Geometric mean,0.1 µg/mL
same,MIC,[1]; read-out: MIC Mode,0.032 µg/mL
same,IC50,[2]; [23],0.0022 µg/mL
same,IC50,[2]; [24],0.00045 µg/mL
same,IC50,[3]; [25],0.0031 µg/mL
same,IC50,[3]; [26],0.046 µg/mL
same,MIC,[4]; [28],0.13 µg/mL
same,MIC,[5]; [29],0.16 µg/mL
same,MIC,[6]; [29],0.093 µg/mL
same,MIC,[7],0.13 µg/mL
same,MIC,[8],0.5 µg/mL
same,MIC,[9],0.031 µg/mL
same,MIC,[10],1 µg/mL
same,MIC,[11],0.25 µg/mL
same,MIC,[12]; [30],0.081 µg/mL
same,MIC,[13],0.25 µg/mL
same,MIC,[14],> 8 µg/mL
same,MIC,[15]; [31],0.016 µg/mL
same,MIC,[16],> 8 µg/mL
same,MIC,[17],> 8 µg/mL
same,MIC,[18],> 8 µg/mL
same,MIC,[19],> 8 µg/mL
same,MFC,A. fumigatus (NCPF2010) [20],4 µg/mL
same,CFU-MFC/MIC ratio,A. fumigatus (NCPF2010) [20],32
same,MFC,A. fumigatus (NCPF2010) [21]; Aspergillus fumigatus,0.42 µg/mL
same,inhibition at 2 µg/mL,A. fumigatus (NCPF2010) [21]; [27],100%
same,XTT-MFC/MIC ratio,A. fumigatus (NCPF2010) [21],3.4
same,XTT-MFC,A. fumigatus (NCPF2010) [21],0.42 ± 0.020 µg/mL
same,MIC,A. fumigatus (NCPF2010) [22],0.125 µg/mL
